Source: patent US9920030B2 (priority 2006, dated 2018)
Where two headings read alike, the source gives them in different places.

Assays:
[1] = tested on: Phytophthora infestans (the causal agent of tomato late blight); test: whole plant or invertebrate; type: in vivo; conditions: for pest or weed control at 40 ppm: Phytophthora infestans, 96 h, read-out: Percent Disease Control, Test C
[2] = tested on: Plasmopara vilicola (the causal agent of grape downy mildew); test: Test A: grape downy mildew, test suspension sprayed on grape seedlings after inoculation, visual disease rating; type: in vivo; conditions: for pest or weed control at 40 ppm: Plasmopara, 144 h, read-out: Percent Disease Control, Test A
In short: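 Compounds dissolved in acetone (3% of final volume), suspended in 50/50 acetone/water with 250 ppm Trem 014; 200 ppm to run-off equals 500 g/ha. Seedlings inoculated, held saturated at 20 °C 24 h, then sprayed; 5 days at 20 °C, 24 h saturated, then visual rating, 0–100% control versus untreated.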

[3] = tested on: Phytophthora infestans (the causal agent of tomato late blight); test: whole plant or invertebrate; type: in vivo; conditions: for pest or weed control at 40 ppm: Phytophthora infestans, 144 h, read-out: Percent Disease Control, Test B
[4] = compounds without asterisk (application rate not given), 100 = 100% disease control, 0 = no control relative to the controls

Cc1cc(C(F)(F)F)nn1CC(=O)N1CCC(c2nc(C3=NOC(C)(c4ccccc4)C3)cs2)CC1 (centres unmarked) [Compound 15, 1-[4-[4-(4,5-dihydro-5-methyl-5-phenyl-3-isoxazolyl)-2-thiazolyl]-1-piperidinyl]-2-[5-methyl-3-(trifluoromethyl)-1H-pyrazol-1-yl]ethanone]
melting point: 97 to 100 °C

Cc1cc(C(F)(F)F)nn1CC(=O)N1CCC(c2nc(C3=NOC4c5ccccc5CCC34)cs2)CC1 (centres unmarked) [Compound 16, 2-[5-methyl-3-(trifluoromethyl)-1H-pyrazol-1-yl]-1-[4-[4-(3a,4,5,9b-tetrahydronaphth[2,1-d]isoxazol-3-yl)-2-thiazolyl]-1-piperidinyl]ethanone]
melting point: 162 to 165 °C

COc1ccc(C2CC(c3csc(C4CCN(C(=O)Cn5nc(C(F)(F)F)cc5C)CC4)n3)=NO2)cc1 (centres unmarked) [Compound 18, 1-[4-[4-[4,5-dihydro-5-(4-methoxyphenyl)-3-isoxazolyl]-2-thiazolyl]-1-piperidinyl]-2-[5-methyl-3-(trifluoromethyl)-1H-pyrazol-1-yl]ethanone]
pest or weed control at 40 ppm [1]: 99%
pest or weed control at 40 ppm ([2]; * tested at 40 ppm): 100%
melting point: 119 to 124 °C
pest or weed control at 40 ppm [3]: 100%

CCc1cc(C(F)(F)F)nn1CC(=O)N1CCC(c2nc(C3=NOC(c4ccccc4)C3)cs2)CC1 (centres unmarked) [Compound 19, 1-[4-[4-(4,5-dihydro-5-phenyl-3-isoxazolyl)-2-thiazolyl]-1-piperidinyl]-2-[5-ethyl-3-(trifluoromethyl)-1H-pyrazol-1-yl]ethanone]
pest or weed control at 40 ppm [1]: 99%
pest or weed control at 40 ppm ([2]; * tested at 40 ppm): 100%
melting point: 128 to 133 °C
pest or weed control at 40 ppm [3]: 100%

O=C(Cn1nc(C(F)(F)F)cc1C(F)(F)F)N1CCC(c2nc(C3=NOC(c4ccccc4)C3)cs2)CC1 (centres unmarked) [Compound 22, 2-[3,5-bis(trifluoromethyl)-1H-pyrazol-1-yl]-1-[4-[4-(4,5-dihydro-5-phenyl-3-isoxazolyl)-2-thiazolyl]-1-piperidinyl]ethanone]
pest or weed control at 40 ppm [1]: 99%
pest or weed control at 40 ppm ([2]; * tested at 40 ppm): 100%
melting point: 130 to 133 °C
pest or weed control at 40 ppm [3]: 100%

Cc1cc(C(F)(F)F)nn1CC(=O)N1CCC(c2nc(-c3ccc(Br)cc3)cs2)CC1 [Compound 249]
Percent Disease Control, Test C ([1]; * tested at 40 ppm): 0%
Percent Disease Control, Test A ([2]; * tested at 40 ppm): 99%
Percent Disease Control, Test B ([3]; * tested at 40 ppm): 64%

Cc1cc(C(F)(F)F)nn1CC(=O)N1CCC(c2nc(-c3ccc(I)cc3)cs2)CC1 [Compound 250]
Percent Disease Control, Test C ([1]; * tested at 40 ppm): 0%
Percent Disease Control, Test A ([2]; * tested at 40 ppm): 86%
Percent Disease Control, Test B ([3]; * tested at 40 ppm): 58%

Cc1cc(C(F)(F)F)nn1CC(=O)N1CCC(c2nc(C3=NOC4(CCCc5cc(C#N)ccc54)C3)cs2)CC1 (centres unmarked) [Compound 251]
Percent Disease Control, Test C ([1]; * tested at 40 ppm): 99%
Percent Disease Control, Test A ([2]; * tested at 40 ppm): 99%
Percent Disease Control, Test B ([3]; * tested at 40 ppm): 100%

Cc1cc(C(F)(F)F)nn1CC(=O)N1CCC(c2nc(C3=NOC4(CC(=O)N(c5ccccc5)C4=O)C3)cs2)CC1 (centres unmarked) [Compound 252]
Percent Disease Control, Test C ([1]; * tested at 40 ppm): 97%
Percent Disease Control, Test A ([2]; * tested at 40 ppm): 88%
Percent Disease Control, Test B ([3]; * tested at 40 ppm): 91%

C[C@]1(c2ccccc2)CC(c2csc(C3CCN(C(=O)Cn4nc(C(F)(F)F)cc4C(F)(F)F)CC3)n2)=NO1 [Compound 260, 2-[3,5-bis(triflyoromethyl)-1H-pyrazol-1-yl]-1-[4-[4-[(5R)-4,5-dihydro-5-methyl-5-phenyl-3-isoxazolyl]-2-thiazolyl]-1-piperidinyl]ethanone]
Percent Disease Control, Test C ([1]; ** tested at l0 ppm): 96%
Percent Disease Control, Test A ([2]; ** tested at l0 ppm): 100%
Percent Disease Control, Test B ([3]; ** tested at l0 ppm): 100%

Cc1cc(C(F)(F)F)nn1CC(=O)N1CCC(c2nc(C3=NOC(Cc4ccccc4S(N)(=O)=O)C3)cs2)CC1 (centres unmarked) [Compound 262]
Percent Disease Control, Test C ([1]; * tested at 40 ppm): 91%
Percent Disease Control, Test A ([2]; * tested at 40 ppm): 79%
Percent Disease Control, Test B ([3]; * tested at 40 ppm): 100%

CC(=O)Oc1ccccc1C1CC(c2csc(C3CCN(C(=O)Cn4nc(C(F)(F)F)cc4C)CC3)n2)=NO1 (centres unmarked) [Compound 263]
Percent Disease Control, Test C ([1]; * tested at 40 ppm): 83%
Percent Disease Control, Test A ([2]; * tested at 40 ppm): 99%
Percent Disease Control, Test B ([3]; * tested at 40 ppm): 84%

Cc1cc(C(F)(F)F)nn1CC(=O)N1CCC(c2nc(C3=NOC(N(C)C(=O)c4ccccc4)C3)cs2)CC1 (centres unmarked) [Compound 264]
Percent Disease Control, Test C ([1]; * tested at 40 ppm): 88%
Percent Disease Control, Test A ([2]; * tested at 40 ppm): 99%
Percent Disease Control, Test B ([3]; * tested at 40 ppm): 100%

Cc1cc(C(F)(F)F)nn1CC(=O)N1CCC(c2nc(C3=NOC4(CC(=O)N(C)C4=O)C3)cs2)CC1 (centres unmarked) [Compound 267]
Percent Disease Control, Test C [1, 4]: 100%
Percent Disease Control, Test A [2, 4]: 100%
Percent Disease Control, Test B [3, 4]: 100%

CCc1ccc(-c2csc(C3CCN(C(=O)Cn4nc(C(F)(F)F)cc4C)CC3)n2)cc1 [Compound 268]
Percent Disease Control, Test C [1, 4]: 88%
Percent Disease Control, Test A [2, 4]: 100%
Percent Disease Control, Test B [3, 4]: 100%

Cc1cc(C(F)(F)F)nn1CC(=O)N1CCC(c2nc(-c3ccc(OC(F)(F)F)cc3)cs2)CC1 [Compound 269]
Percent Disease Control, Test C [1, 4]: 0%
Percent Disease Control, Test A [2, 4]: 100%
Percent Disease Control, Test B [3, 4]: 100%

COC(=O)c1ccc(-c2csc(C3CCN(C(=O)Cn4nc(C(F)(F)F)cc4C)CC3)n2)cc1 [Compound 270]
Percent Disease Control, Test C [1, 4]: 0%
Percent Disease Control, Test A [2, 4]: 99%
Percent Disease Control, Test B [3, 4]: 83%

CCCc1ccc(-c2csc(C3CCN(C(=O)Cn4nc(C(F)(F)F)cc4C)CC3)n2)cc1 [Compound 271]
Percent Disease Control, Test C [1, 4]: 72%
Percent Disease Control, Test A [2, 4]: 100%
Percent Disease Control, Test B [3, 4]: 100%

CSc1ccc(-c2csc(C3CCN(C(=O)Cn4nc(C(F)(F)F)cc4C)CC3)n2)cc1 [Compound 272]
Percent Disease Control, Test C [1, 4]: 100%
Percent Disease Control, Test A [2, 4]: 100%
Percent Disease Control, Test B [3, 4]: 100%

Cc1cc(C(F)(F)F)nn1CC(=O)N1CCC(c2nc(-c3ccc(C(C)C)cc3)cs2)CC1 [Compound 273]
Percent Disease Control, Test C [1, 4]: 90%
Percent Disease Control, Test A [2, 4]: 100%
Percent Disease Control, Test B [3, 4]: 100%

Cc1cc(C(F)(F)F)nn1CC(=O)N1CCC(c2nc(-c3ccc(CC(C)C)cc3)cs2)CC1 [Compound 274]
Percent Disease Control, Test C [1, 4]: 100%
Percent Disease Control, Test A [2, 4]: 99%
Percent Disease Control, Test B [3, 4]: 100%

Cc1cc(C(F)(F)F)nn1CC(=O)N1CCC(c2nc(C3=NOC(n4c(=O)n(C)c5ccccc54)C3)cs2)CC1 (centres unmarked) [Compound 275]
Percent Disease Control, Test C ([1]; ** tested at l0 ppm): 98%
Percent Disease Control, Test A ([2]; ** tested at l0 ppm): 99%
Percent Disease Control, Test B ([3]; ** tested at l0 ppm): 100%

Cc1cc(C(F)(F)F)nn1CC(=O)N1CCC(c2nc(C3=NOC(CN4C(=O)c5ccccc5C4=O)C3)cs2)CC1 (centres unmarked) [Compound 278]
Percent Disease Control, Test C ([1]; * tested at 40 ppm): 99%
Percent Disease Control, Test A ([2]; * tested at 40 ppm): 94%
Percent Disease Control, Test B ([3]; * tested at 40 ppm): 100%

Cc1cc(C(F)(F)F)nn1CC(=O)N1CCC(c2nc(C3=NOC(N4C(=O)N(C)C(=O)C(C)(C)C4=O)C3)cs2)CC1 (centres unmarked) [Compound 279]
Percent Disease Control, Test C ([1]; * tested at 40 ppm): 99%
Percent Disease Control, Test A ([2]; * tested at 40 ppm): 100%
Percent Disease Control, Test B ([3]; * tested at 40 ppm): 100%

Cc1cc(C(F)(F)F)nn1CC(=O)N1CCC(c2nc(C3=NOC(n4c(=O)sc5ccc(Cl)cc54)C3)cs2)CC1 (centres unmarked) [Compound 280]
Percent Disease Control, Test C ([1]; ** tested at l0 ppm): 98%
Percent Disease Control, Test A ([2]; ** tested at l0 ppm): 92%
Percent Disease Control, Test B ([3]; ** tested at l0 ppm): 100%
